The test system of assay [1] is Interleukin-2 (IL-2) production/release in Jurkat T cell line. The assay is described as follows: Jurkat IL-2 Production Assay. It is filed as cell-based. The note with it: Homo sapiens; Jurkat T cells, PHA stimulation 22 hours. How it is done:
Jurkat IL-2 Production Assay
The effect of compounds of the invention on Interleukin-2 (IL-2) production/release was tested in the Jurkat T cell line (ECACC) clone E6-1. Jurkat T cells were cultured in DMEM/F12/Glutamax (Gibco) containing 10% FCS (Gibco), and maintained at 37° C., 5% CO2. Cell were split twice a week [5*10^6 (Mon-Thu) and 1*10^7 (Thu-Mon) cells/50 ml medium in T-175 ZK culture flasks, respectively]. Prior to experiment, cells were seeded on 96 well plates (Cellstar 96 Well; Cat No. 655180, Greiner bio-one) at a density of 5*10^5 cells/well in DMEM/F12/Glutamax (Gibco) containing 10% FCS (Gibco), and incubated for 60 min at 37° C., 5% CO2. Subsequently, compounds were added and cells were allowed to incubate for 30 min at 37° C., 5% CO2. Cells were then stimulated with 15 μg/ml Phytohemagglutinin (PHA; Sigma) for 22 hours at 37° C., 5% CO2. Before sampling of the supernatants, cells were spun down (200*g/5 min/RT). The amount of IL-2 released into the supernatant was quantified with the human IL-2 AlphaLisa kit (Perkin Elmer) according to manufacturer's instructions. Luminescence proximity measurements were carried out in the Synergy H4 reader (BioTek) employing the fluorescence setting of the reader (ex: 680/30 nm; em: 620/40 nm). Inhibition of IL-production/release in/from Jurkat T cells was quantified as follows: Zero percent inhibition (MAX) was defined as the [IL-2] determined in supernatants derived from cells to which PHA & DMSO-only had been added instead of compound. Hundred percent inhibition (MIN) was defined as the [IL-2] determined in supernatants derived from cells that had been pre-treated with 1 μM CyclosporineA (Sigma) before the addition of 15 μg/ml PHA. For routine IC50 determinations of compounds, 8 concentrations of a serial dilution (1:3.16) were tested, starting off from 10 μM.

For assay [2], the target named is T1, CRAC channel (endogenous SOC in HEK293 cells) (Homo sapiens, UniProt Q96D31).
T1 construct: endogenous in cells; host or cells: HEK293 (ECACC)
The assay is described as follows: HEK Calcium Influx Assay (FLIPR). It is filed as cell-based. As for the experimental part: The effect of compounds of the invention on intracellular [Ca^2+] was tested in the HEK293 cell line (ECACC). HEK293 cells were cultured in DMEM/F12/Glutamax (Gibco) containing 10% FCS (Gibco), and maintained at 37° C., 5% CO2. Cell were split twice a week [3*10^6 (Mon-Thu) and 1*10^6 (Thu-Mon) cells/50 ml medium in T-175 ZK culture flasks, respectively]. Twenty four hours pre-experiment, cells were seeded on 96 well plates (Poly-D-Lysine 96well Black/Clear Plate, BD Biocoat REF 356640) at a density of 40,000 cells/well in DMEM/F12 (Gibco) containing 10% FCS (Gibco), and maintained at 37° C., 5% CO2. Prior to store-depletion, cell culture medium was removed and cells were loaded with the a Calcium-sensitive fluorescent dye comprised within the Calcium-4-assay kit (Molecular Devices) in nominally Ca^2+-free HBS buffer (140 mM NaCl, 4 mM KCl, 0.2 mM MgCl2, 11 mM D-glucose, and 10 mM HEPES, pH 7.4) according to manufacturer's instruction for 60 min at 37° C., 5% CO2. Passive depletion of intracellular Ca^2+-stores was then triggered by employing the SERCA inhibitor thapsigargin (2 μM final) for 10 min in the dark (RT). To prevent immediate Ca^2+-entry via the activated Store-operated channels (SOCs), cells were maintained in Ca^2+-free HBS buffer comprising 100 μM EGTA during store-depletion. Intracellular changes in [Ca^2+] were subsequently monitored with the FLIPR device (Molecular Devices). In brief, baseline imaging post-store depletion was allowed for 1 min before adjusting the extracellular buffer to 3 mM CaCl2. Increases in intracellular [Ca^2+] due to pre-activated SOC channels were monitored for 15 min until intracellular Ca^2+ levels had declined into a steady-state. Finally, compounds were administered and Ca^2+ signals were recorded for additional 10 min. Inhibition of endogenous SOC in HEK293 cells was quantified employing the average Ca^2+ signal measured from 9.5-10 min post-administration. Zero percent inhibition (MAX) was defined as the Ca^2+ signal recorded from wells to which DMSO-only had been added instead of compound. Hundred percent inhibition (MIN) was defined as the signal obtained from wells in which cells haven't been treated with TG prior to Ca^2+ addition and to which DMSO-only had been added instead of compound. For routine IC50 determinations of compounds, 8 concentrations of a serial dilution (1:3.16) were tested, starting off from 10 μM. Reliable IC50's could consequently be determined only, if they were at least sub 2.5-3 μM.

The mark [3] stands for this setting: thapsigargin store depletion, read-out: % inhib. [@ 10 μM] FLIPR.
Setting [4] is: numeric values of Table 2, read-out: inhib. [@ 10 μM] FLIPR.

Here are results for 19 compounds from patent US20150166505A1, “PYRIDINYL-SUBSTITUTED PYRAZOLYL CARBOXAMIDES” (GRÜNENTHAL GMBH, priority 2013, published 2015).

The structures appear in SMILES notation. Structures can show the parent of a compound that is named as a salt. Where two headings read alike, the source gives them in different places.

T1 sequence (Q96D31 whole entry): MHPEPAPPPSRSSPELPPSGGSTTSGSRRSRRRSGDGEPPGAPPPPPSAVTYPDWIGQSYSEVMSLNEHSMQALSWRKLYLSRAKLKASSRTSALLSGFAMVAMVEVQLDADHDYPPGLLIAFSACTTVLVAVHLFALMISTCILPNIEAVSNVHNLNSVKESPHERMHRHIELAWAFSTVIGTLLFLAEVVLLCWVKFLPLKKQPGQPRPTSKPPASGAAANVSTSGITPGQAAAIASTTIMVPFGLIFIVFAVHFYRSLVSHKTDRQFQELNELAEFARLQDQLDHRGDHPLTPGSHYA

Turning to `COc1cc(OCC2CC2)ncc1-c1cc(C(=O)Nc2c(F)cccc2F)nn1C` [Example 45, 5-[6-(Cyclopropyl-methoxy)-4-methoxy-pyridin-3-yl]-N-(2,6-difluoro-phenyl)-1-methyl-1H-pyrazole-3-carboxylic acid amide], the IC50 in assay [1] is under 0.5 µM. Besides, the inhibition at 10 µM in assay [2] (setting [3]) is over 70%.
The matching figures for `CCOc1cc(OC(F)F)c(-c2cc(C(=O)Nc3c(F)cccc3F)nn2C)cn1` [Example 47, 5-[4-(Difluoro-methoxy)-6-ethoxy-pyridin-3-yl]-N-(2,6-difluoro-phenyl)-1-methyl-1H-pyrazole-3-carboxylic acid amide]: under 0.5 µM and over 70%.
The matching figures for `COc1cc(OC)c(-c2cc(C(=O)Nc3c(F)cccc3F)n[nH]2)cn1` [Example 69, N-(2,6-Difluoro-phenyl)-5-(4,6-dimethoxy-pyridin-3-yl)-1H-pyrazole-3-carboxylic acid amide hydrochloride]: 1 to 5 µM and over 70%.
The corresponding values for `COc1cc(OC(F)F)ncc1-c1cc(C(=O)Nc2c(F)cncc2F)nn1C` [Example 44, 5-[6-(Difluoro-methoxy)-4-methoxy-pyridin-3-yl]-N-(3,5-difluoro-pyridin-4-yl)-1-methyl-1H-pyrazole-3-carboxylic acid amide] are under 0.5 µM and over 70%.
As to `CCOc1cc(C(F)(F)F)c(-c2cc(C(=O)Nc3c(F)cncc3F)nn2C)cn1` [Example 31, N-(3,5-Difluoro-pyridin-4-yl)-5-[6-ethoxy-4-(trifluoromethyl)-pyridin-3-yl]-1-methyl-1H-pyrazole-3-carboxylic acid amide], in assay [1], the half-maximal inhibitory concentration (IC50) is 1 to 5 µM. Moreover, in assay [2] (setting [3]), the inhibition at 10 µM was over 70%.
Take `CCOc1ncc(-c2cc(C(=O)Nc3c(F)cccc3F)nn2C)c(C)c1F` [Example 35, N-(2,6-Difluoro-phenyl)-5-(6-ethoxy-5-fluoro-4-methyl-pyridin-3-yl)-1-methyl-1H-pyrazole-3-carboxylic acid amide]: the IC50 in assay [1] was 1 to 5 µM. Further, the inhibition at 10 µM in assay [2] (setting [3]) was under 50%.
As for `COc1cc(OCC(F)(F)F)ncc1-c1cc(C(=O)Nc2c(F)cccc2F)nn1C` [Example 46, N-(2,6-Difluoro-phenyl)-5-[4-methoxy-6-(2,2,2-trifluoro-ethoxy)-pyridin-3-yl]-1-methyl-1H-pyrazole-3-carboxylic acid amide], the IC50 in assay [1] is under 0.5 µM. Besides, in assay [2] (setting [3]), the inhibition at 10 µM was over 70%.
The corresponding values for `CCOc1cc(OCC)c(-c2cc(C(=O)Nc3c(F)cncc3F)nn2C)cn1` [Example 15, 5-(4,6-Diethoxy-pyridin-3-yl)-N-(3,5-difluoro-pyridin-4-yl)-1-methyl-1H-pyrazole-3-carboxylic acid amide] are under 0.5 µM and over 70%.
For `CCc1cc(C)c(-c2cc(C(=O)Nc3c(F)cncc3F)nn2C)cn1` [Example 7, N-(3,5-Difluoro-pyridin-4-yl)-5-(6-ethyl-4-methyl-pyridin-3-yl)-1-methyl-1H-pyrazole-3-carboxylic acid amide], the IC50 in assay [1] was 1 to 5 µM. Besides, the inhibition at 10 µM in assay [2] (setting [4]) was 61%; in assay [2] (setting [3]), 50 to 70%.
As for `CCOc1ncc(-c2cc(C(=O)Nc3c(F)cncc3F)nn2C)c(C)c1F` [Example 36, N-(3,5-Difluoro-pyridin-4-yl)-5-(6-ethoxy-5-fluoro-4-methyl-pyridin-3-yl)-1-methyl-1H-pyrazole-3-carboxylic acid amide], the IC50 in assay [1] was in the range of 1 to 5 µM. Moreover, in assay [2] (setting [3]), the inhibition at 10 µM lay in the range of 50 to 70%.
On to `Cc1cc(OC(F)(F)F)ncc1-c1cc(C(=O)Nc2c(F)cccc2F)nn1C` [Example 12, N-(2,6-Difluoro-phenyl)-1-methyl-5-[4-methyl-6-(trifluoromethyloxy)-pyridin-3-yl]-1H-pyrazole-3-carboxylic acid amide], for which, in assay [1], the IC50 was under 0.5 µM. In addition, the inhibition at 10 µM was 92% in assay [2] (setting [4]) and over 70% in assay [2] (setting [3]).
Take `Cn1nc(C(=O)Nc2c(F)cncc2F)cc1-c1cnc(C2CC2)cc1C(F)(F)F` [Example 63, 5-[6-Cyclopropyl-4-(trifluoromethyl)-pyridin-3-yl]-N-(3,5-difluoro-pyridin-4-yl)-1-methyl-1H-pyrazole-3-carboxylic acid amide]: the IC50 in assay [1] is 1 to 5 µM. In addition, the inhibition at 10 µM in assay [2] (setting [3]) was over 70%.
As to `CCOc1cc(C)c(-c2cc(C(=O)Nc3c(F)cncc3F)nn2C)cn1` [Example 2, N-(3,5-Difluoro-pyridin-4-yl)-5-(6-ethoxy-4-methyl-pyridin-3-yl)-1-methyl-1H-pyrazole-3-carboxylic acid amide], in assay [1], the IC50 is 0.5 to 1 µM. The inhibition at 10 µM in assay [2] (setting [4]) is 95%; in assay [2] (setting [3]), over 70%.
The matching figures for `Cc1cc(OC2CC2)ncc1-c1cc(C(=O)Nc2c(F)cccc2F)nn1C` [Example 10, 5-(6-Cyclopropyloxy-4-methyl-pyridin-3-yl)-N-(2,6-difluoro-phenyl)-1-methyl-1H-pyrazole-3-carboxylic acid amide]: 0.5 to 1 µM, 83% and over 70%.
Take `COc1cc(OC2COC2)ncc1-c1cc(C(=O)Nc2c(F)cccc2F)nn1C` [Example 62, N-(2,6-Difluoro-phenyl)-5-[4-methoxy-6-(oxetan-3-yloxy)-pyridin-3-yl]-1-methyl-1H-pyrazole-3-carboxylic acid amide]: the IC50 in assay [1] fell in the range of 1 to 5 µM. Moreover, the inhibition at 10 µM in assay [2] (setting [3]) was in the range of 50 to 70%.
The matching figures for `CCOc1ccc(-c2cc(C(=O)Nc3c(F)cccc3F)nn2C)c(C)n1` [Example 5, N-(2,6-Difluoro-phenyl)-5-(6-ethoxy-2-methyl-pyridin-3-yl)-1-methyl-1H-pyrazole-3-carboxylic acid amide]: 1 to 5 µM and over 70%.
For `Cc1cc(OC2CC2)ncc1-c1cc(C(=O)Nc2c(F)cncc2F)nn1C` [Example 9, 5-(6-Cyclopropyloxy-4-methyl-pyridin-3-yl)-N-(3,5-difluoro-pyridin-4-yl)-1-methyl-1H-pyrazole-3-carboxylic acid amide], the IC50 in assay [1] was 0.5 to 1 µM. For the same compound, the inhibition at 10 µM in assay [2] (setting [4]) is 76%; in assay [2] (setting [3]) it was over 70%.
The matching figures for `Cc1cc(C(F)(F)F)ncc1-c1cc(C(=O)Nc2c(F)cccc2F)nn1C` [Example 60, N-(2,6-Difluoro-phenyl)-1-methyl-5-[4-methyl-6-(trifluoromethyl)-pyridin-3-yl]-1H-pyrazole-3-carboxylic acid amide]: 0.5 to 1 µM, 100% and over 70%.
As for `CCOc1cc(OCC)c(-c2cc(C(=O)Nc3c(F)cccc3F)nn2C)cn1` [Example 17, 5-(4,6-Diethoxy-pyridin-3-yl)-N-(2,6-difluoro-phenyl)-1-methyl-1H-pyrazole-3-carboxylic acid amide], in assay [1], the IC50 is under 0.5 µM. The inhibition at 10 µM in assay [2] (setting [3]) is over 70%.
